By Ki is commonly meant a measure of affinity in units of concentration, obtained from inhibition or displacement.

Consider 5 compounds from paper PMC7756656, “Discovery of Homobivalent Bitopic Ligands of the Cannabinoid CB2 Receptor” (Chemistry (Weinheim an Der Bergstrasse, Germany), 2020).

The target of test [1] is T1, CB1R (hCB1R) (Homo sapiens, UniProt P21554).
T1 construct: gene CNR1; expressed in HEK-293T cells; membrane fractions
Description: biochemical. The class given is HEK-293T membranes. Also on record: [3H]CP-55,940 competition radioligand binding, membrane filtration, scintillation counting. From the text:
(§1) In vitro binding affinities of the alleged bitopic ligands 18–29 (Table 1) and the corresponding monovalent counterparts 6–17 (Table S1) were obtained from [^3H]CP‐55,940 competition‐binding assays using membrane fractions of the human CB1R and CB2R, respectively, expressed in HEK‐293T cells. […] Addition of the second pharmacophore makes bivalent ligands capable of binding CB2R in a selective manner. Optimal spacer length for N1‐ and N2‐ethyl derivatives is from 10 (n=8) to 14 (n=12) methylene units. S23 Aldrich, Madrid, Spain). Membranes were resuspended in the corresponding buffer and were incubated (90 min at 30 °C) with the radioligand and each compound at a high concentration (40 μM) with the purpose of determining the % of radioligand displacement. […] Nonspecific binding was determined with 10 μM WIN55212-2 (Sigma-Aldrich, Madrid, Spain) and total radioligand binding by incubation with the membranes in the absence of any compound. Filtration was performed by a Harvester filtermate (PerkinElmer, Boston, MA, USA) with Filtermat A GF/C filters pretreated with polyethylenimine 0.05%. After filtering, the filter was washed nine times with binding buffer and dried, and a melt-on scintillation sheet (MeltilexTM A, PerkinElmer, Boston, MA, USA) was melted onto it. Then, radioactivity was quantified by a liquid scintillation counter (Wallac MicroBeta Trilux, PerkinElmer, Boston, MA, USA). Competition binding data were analyzed by using GraphPad Prism, version 5.02 (GraphPad Software Inc., San Diego, CA, USA), and Ki values are expressed as the mean ± SEM of at least three experiments performed in triplicate for each. 2.2- cAMP determination assays. Determination of cAMP levels in HEK293 cells stably expressing the CB2R was performed using the Lance-Ultra cAMP kit (PerkinElmer) according to the manufacturer’s instructions. Briefly, HEK293 cells expressing the CB2R were dispensed in white 384-well microplates at a density of 5.000 cells per well. Finally, cells were incubated for 60 min at room temperature with HTRF assay reagents, and fluorescence at 665 nm was analyzed on a PHERAstar Flagship microplate reader equipped with an HTRF optical module (BMG Labtech). Data analysis was made based on the fluorescence ratio emitted by the labeled cAMP probe (665 nm) over the light emitted by the europium cryptate-labeled anti-cAMP antibody (620 nm). A standard curve was used to calculate cAMP concentration. Forskolin stimulated cAMP levels were normalized to 100%. Data was analyzed by using […]

Test [2] concerns the target T2, CB2R (hCB2R) (Homo sapiens, UniProt P34972).
T2 construct: gene CNR2; expressed in HEK-293T cells
The test can be described thus: biochemical. The class given is HEK-293T membranes. Also on record: [3H]CP-55,940 competition radioligand binding, membrane filtration, scintillation counting.
Excerpt: as §1

The target in test [3] is T1, CB1R (hCB1R). The test can be described thus: [3H]CP-55, […] competition binding, HEK-293T membranes. The conditions noted are these: read-out: CB1R Ki [μM]^[b].
The target of test [4] is T2, CB2R (hCB2R). Description: inhibition of forskolin-induced cAMP, HEK-293T cells. The class given is cell-based. The conditions noted are these: read-out: Wild type / pEC50 (converted).
Test [5] deals with T3, CB2R (hCB2R) (Homo sapiens, UniProt P34972, A282M).
T3 construct: gene CNR2; expressed in HEK-293T cells
T3 sequence (P34972 whole entry A282M): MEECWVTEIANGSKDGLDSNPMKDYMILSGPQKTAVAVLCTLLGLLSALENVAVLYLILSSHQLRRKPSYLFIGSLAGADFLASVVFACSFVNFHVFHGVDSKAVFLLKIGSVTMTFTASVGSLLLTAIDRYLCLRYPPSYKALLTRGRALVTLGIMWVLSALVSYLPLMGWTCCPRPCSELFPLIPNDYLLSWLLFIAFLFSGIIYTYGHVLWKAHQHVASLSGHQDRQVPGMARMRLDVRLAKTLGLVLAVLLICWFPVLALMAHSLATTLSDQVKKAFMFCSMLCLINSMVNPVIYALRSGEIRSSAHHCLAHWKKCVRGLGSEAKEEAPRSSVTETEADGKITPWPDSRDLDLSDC
The test is described as above. The conditions noted are these: read-out: Ala282^7.36Met / pEC50 (converted). Format: cell-based.

For test [6], the target named is T4, CB2R (hCB2R) (Homo sapiens, UniProt P34972, V36M).
T4 construct: gene CNR2; expressed in HEK-293T cells
T4 sequence (P34972 whole entry V36M): as the sequence (P34972 whole entry A282M) above, with V36M, M282A counted along it
Described as above. Format: cell-based. The following applies: read-out: Val36^1.35Met / pEC50 (converted).

Test [7] deals with T2, CB2R (hCB2R). The test can be described thus: [3H]CP-55, […] competition binding, HEK-293T membranes. The conditions noted are these: read-out: CB2R Ki [μM]^[b].
Assay in test [8]: as above
Also on record: species or system Homo sapiens. The conditions noted are these: read-out: CB1R Ki [μM]^[b].

T2 sequence (P34972 whole entry): as the sequence (P34972 whole entry A282M) above, with M282A counted along it
T1 sequence (P21554 whole entry): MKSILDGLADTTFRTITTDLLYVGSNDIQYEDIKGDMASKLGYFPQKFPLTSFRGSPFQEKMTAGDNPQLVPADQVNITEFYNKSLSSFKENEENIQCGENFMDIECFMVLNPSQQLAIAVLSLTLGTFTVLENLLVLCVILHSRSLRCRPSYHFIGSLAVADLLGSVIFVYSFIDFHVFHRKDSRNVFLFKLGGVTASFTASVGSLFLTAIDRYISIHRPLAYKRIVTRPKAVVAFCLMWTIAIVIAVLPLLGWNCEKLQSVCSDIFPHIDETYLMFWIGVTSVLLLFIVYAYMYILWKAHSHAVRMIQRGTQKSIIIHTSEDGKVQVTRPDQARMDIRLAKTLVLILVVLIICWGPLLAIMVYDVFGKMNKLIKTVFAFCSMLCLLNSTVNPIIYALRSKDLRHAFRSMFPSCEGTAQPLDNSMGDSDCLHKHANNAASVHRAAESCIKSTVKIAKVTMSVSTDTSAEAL

With `CCCCCCCCCCCCCCCCOc1cc(C(C)(C)CCCCCC)cc2c1-c1nn(CC)cc1C(C)(C)O2` [compound 17, 17], the Ki at CB1R (hCB1R) [1] and on CB2R (hCB2R) [2] was greater than 40000 nM in each case.

With `CCCCCCC(C)(C)c1cc(OCCCCCCCCCCOc2cc(C(C)(C)CCCCCC)cc3c2-c2c(cnn2CC)C(C)(C)O3)c2c(c1)OC(C)(C)c1cnn(CC)c1-2` [compound 22, bivalent chromenopyrazole 22 (R1 = N1-Et, n = 8)], the Ki is greater than 40 µM at CB1R (hCB1R) [3] and 0.9 ± 0.2 µM on CB2R (hCB2R) [7]. Also, the values for the EC50 on CB2R (hCB2R) [4], at CB2R (hCB2R) [5] and at CB2R (hCB2R) [6] were 79.4 nM, 63.1 nM and 20 nM, respectively.

For the compound `CCCCCCC(C)(C)c1cc(OCCCCCCCCCCCCCCCCOc2cc(C(C)(C)CCCCCC)cc3c2-c2c(cnn2CC)C(C)(C)O3)c2c(c1)OC(C)(C)c1cnn(CC)c1-2` [compound 28, bivalent chromenopyrazole 28 (R1 = N1-Et, n = 14)], the Ki (on CB1R (hCB1R) [3]; in test [8]) was greater than 40 µM throughout.

With `CCCCCCC(C)(C)c1cc(OCCCCCCCCCCCCCCOc2cc(C(C)(C)CCCCCC)cc3c2-c2nn(CC)cc2C(C)(C)O3)c2c(c1)OC(C)(C)c1cn(CC)nc1-2` [compound 27], the Ki is greater than 40 µM on CB1R (hCB1R) [3] and 0.3 ± 0.1 µM on CB2R (hCB2R) [7]. For the same compound, the values for the EC50 on CB2R (hCB2R) [4], on CB2R (hCB2R) [5] and on CB2R (hCB2R) [6] were 25.1 nM, 50.1 nM and 79.4 nM, respectively.

Regarding `CCCCCCCCCCCCCCOc1cc(C(C)(C)CCCCCC)cc2c1-c1nn(CC)cc1C(C)(C)O2` [compound 15, 15], the Ki on CB1R (hCB1R) [1] and on CB2R (hCB2R) [2] was greater than 40000 nM in each case.
